# US8981111B2 (priority 2008, dated 2015)
# Test: log P (HPLC/MS data of the preparation examples)
# Conditions: LC-MS, method [b]: pH 2.7 with 0.1% formic acid in water and acetonitrile, linear gradient 10% to 95% acetonitrile
row,SMILES,log p
1,Cc1cc(C(F)(F)F)nn1CC(=O)Nc1cccc(CON=C(c2ccccc2)c2nccn2C)n1 [Example 279],2.61^[b]
2,Cn1ccnc1C(=NOCc1cccc(NC(=O)COc2ccccc2)n1)c1ccccc1 [Example 280],2.58^[b]
3,Cn1ccnc1C(=NOCc1cccc(NC(=O)CCC2CCCC2)n1)c1ccccc1 [Example 281],3.19^[b]
4,Cn1ccnc1C(=NOCc1cccc(NC(=O)CCC2CCCCC2)n1)c1ccccc1 [Example 282],3.67^[b]
5,Cn1ccnc1C(=NOCc1cccc(NC(=O)CSc2ccccc2)n1)c1ccccc1 [Example 283],2.63^[b]

# Same assay, conditions: method [b]: LC-MS at pH 2.7, 0.1% formic acid in water / acetonitrile, linear gradient 10% to 95% acetonitrile
row,SMILES,log p
1,Cn1c(C(=NOCc2cccc(NC(=O)CCc3ccccc3)n2)c2ccccc2)nnc1C(F)(F)F [Example 201],3.85^[b]
2,Cn1c(C(=NOCc2cccc(NC(=O)C3CCCC3)n2)c2ccccc2)nnc1C(F)(F)F [Example 202],3.69^[b]
3,CC(C)COC(=O)Nc1cccc(CON=C(c2ccccc2)c2nnc(C(F)(F)F)n2C)n1 [Example 203],4.06^[b]
4,Cn1c(C(=NOCc2cccc(NC(=O)c3cccs3)n2)c2ccccc2)nnc1C(F)(F)F [Example 204],3.48^[b]
5,CCOc1ccc(C(=O)Nc2cccc(CON=C(c3ccccc3)c3nnc(C(F)(F)F)n3C)n2)cc1 [Example 205],3.94^[b]
6,CSCCC(=O)Nc1cccc(CON=C(c2ccccc2)c2nnc(C(F)(F)F)n2C)n1 [Example 206],3.15^[b]
7,CCCCC(=O)Nc1cccc(CON=C(c2ccccc2)c2nnc(C(F)(F)F)n2C)n1 [Example 207],3.58^[b]
8,Cn1ncnc1C(=NOCc1cccc(N2CCCCC2=O)n1)c1ccccc1 [Example 208],2.18^[b]
9,Cc1ncc(C(=NOCc2cccc(N)n2)c2ccccc2)n1C [Example 209],0.56^[b]
10,CCCCCOC(=O)Nc1cccc(CON=C(c2ccccc2)c2cnc(C)n2C)n1 [Example 211],3.13^[b]
11,CCCCCC(=O)Nc1cccc(CON=C(c2ccccc2)c2cnc(C)n2C)n1 [Example 212],2.08^[b]
12,Cc1nnsc1C(=NOCc1cccc(N2C(=O)c3ccccc3C2=O)n1)c1ccccc1 [Example 214],3.69^[b]
13,Cc1nnsc1C(=NOCc1cccc(N)n1)c1ccccc1 [Example 215],1.63^[b]
14,CCCCCC(=O)Nc1cccc(CON=C(c2ccccc2)c2snnc2C)n1 [Example 216],4.46^[b]
15,CCCCCOC(=O)Nc1cccc(CON=C(c2ccccc2)c2snnc2C)n1 [Example 217],5.11^[b]
16,Cc1nnsc1C(=NOCc1cccc(NC(=O)CC(C)C)n1)c1ccccc1 [Example 218],3.96^[b]
17,Cc1nnsc1C(=NOCc1cccc(NC(=O)Cc2ccccc2)n1)c1ccccc1 [Example 219],4.04^[b]
18,Cc1nnsc1C(=NOCc1cccc(NC(=O)CCc2ccccc2)n1)c1ccccc1 [Example 220],4.31^[b]
19,Cc1nnsc1C(=NOCc1cccc(NC(=O)CCC2CCCC2)n1)c1ccccc1 [Example 221],5^[b]
20,Cc1nnsc1C(=NOCc1cccc(NC(=O)OCC(C)C)n1)c1ccccc1 [Example 222],4.65^[b]
21,Cc1nnsc1C(=NOCc1cccc(NC(=O)CCC2CCCCC2)n1)c1ccccc1 [Example 223],5.41^[b]
22,CCCCC(=O)Nc1cccc(CON=C(c2ccccc2)c2snnc2C)n1 [Example 224],4.04^[b]
23,Cn1ccnc1C(=NOCc1cccc(N2C(=O)c3ccccc3C2=O)n1)c1cccc(F)c1 [Example 227],2.13^[b]
24,Cn1cnnc1C(=NOCc1cccc(C#CCC2CCCC2)n1)c1ccccc1 [Example 230],3.76^[b]

row,SMILES,log p
1,Cn1cnnc1C(=NOCc1cccc(C#CCC2CCCCC2)n1)c1ccccc1 [Example 231],4.14^[b]
2,Cn1cnnc1C(=NOCc1cccc(C#Cc2ccccc2)n1)c1ccccc1 [Example 232],3.15^[b]
3,Cn1ccnc1C(=NOCc1cccc(N)n1)c1cccc(F)c1 [Example 233],0.54^[b]
4,COc1ccccc1CC(=O)Nc1cccc(CON=C(c2ccccc2)c2ncnn2C)n1 [Example 234],3.17^[b]
5,Cn1ncnc1C(=NOCc1cccc(NC(=O)Cc2cccc(F)c2)n1)c1ccccc1 [Example 235],3.15^[b]
6,COCCC(=O)Nc1cccc(CON=C(c2ccccc2)c2ncnn2C)n1 [Example 237],2.17^[b]
7,Cn1ncnc1C(=NOCc1cccc(NC(=O)CCc2cccc(Cl)c2)n1)c1ccccc1 [Example 238],3.73^[b]
8,Cn1ncnc1C(=NOCc1cccc(NC(=O)CCc2cccc(C(F)(F)F)c2)n1)c1ccccc1 [Example 239],3.87^[b]
9,CC(C(=O)Nc1cccc(CON=C(c2ccccc2)c2ncnn2C)n1)c1ccccc1 (centres unmarked) [Example 240],3.42^[b]
10,Cn1ncnc1C(=NOCc1cccc(NC(=O)Cc2cc(F)cc(F)c2)n1)c1ccccc1 [Example 241],3.33^[b]
11,Cn1ncnc1C(=NOCc1cccc(NC(=O)Cc2ccc(Cl)cc2)n1)c1ccccc1 [Example 242],3.46^[b]
12,Cn1ncnc1C(=NOCc1cccc(NC(=O)Cc2ccccc2Cl)n1)c1ccccc1 [Example 243],3.31^[b]
13,Cn1ncnc1C(=NOCc1cccc(NC(=O)Cc2cccc(C(F)(F)F)c2)n1)c1ccccc1 [Example 244],3.64^[b]
14,Cn1ncnc1C(=NOCc1cccc(NC(=O)Cc2ccccc2C(F)(F)F)n1)c1ccccc1 [Example 245],3.51^[b]
15,COc1ccc(CC(=O)Nc2cccc(CON=C(c3ccccc3)c3ncnn3C)n2)cc1 [Example 246],3.02^[b]
16,COc1cccc(CC(=O)Nc2cccc(CON=C(c3ccccc3)c3ncnn3C)n2)c1 [Example 247],3.06^[b]
17,Cn1ncnc1C(=NOCc1cccc(NC(=O)C2CCCCC2)n1)c1ccccc1 [Example 248],3.39^[b]
18,Cn1ncnc1C(=NOCc1cccc(NC(=O)CCCc2ccccc2)n1)c1ccccc1 [Example 249],3.6^[b]
19,Cn1ncnc1C(=NOCc1cccc(NC(=O)CSc2ccccc2)n1)c1ccccc1 [Example 250],3.33^[b]
20,Cn1ncnc1C(=NOCc1cccc(NC(=O)C2CCCCO2)n1)c1ccccc1 (centres unmarked) [Example 251],3.15^[b]
21,CCc1ccc(C(=O)Nc2cccc(CON=C(c3ccccc3)c3ncnn3C)n2)cc1 [Example 252],3.73^[b]
22,CCCCCOC(=O)Nc1cccc(CON=C(c2ccccc2)c2cncn2C)n1 [Example 253],2.39^[b]
23,CCCCCCCCCC(=O)Nc1cccc(CON=C(c2ccccc2)c2cncn2C)n1 [Example 254],3.09^[b]
24,Cn1cncc1C(=NOCc1cccc(NC(=O)COc2ccccc2)n1)c1ccccc1 [Example 255],2.04^[b]

row,SMILES,log p
1,CCCC(=O)Nc1cccc(CON=C(c2ccccc2)c2cncn2C)n1 [Example 256],1.6^[b]
2,CCCCC(=O)Nc1cccc(CON=C(c2ccccc2)c2cncn2C)n1 [Example 258],1.82^[b]
3,CCC(C(=O)Nc1cccc(CON=C(c2ccccc2)c2cncn2C)n1)c1ccccc1 (centres unmarked) [Example 259],2.3^[b]
4,Cn1c(C(=NOCc2nccc(N(C(=O)C3CC3)C(=O)C3CC3)n2)c2ccccc2)cnc1C(=O)C1CC1 [Example 260],3.73^[b]
5,CCCc1ccc(C(=O)Nc2cccc(CON=C(c3ccccc3)c3ncnn3C)n2)cc1 [Example 261],4.24^[b]
6,CCC(C)CC(=O)Nc1cccc(CON=C(c2ccccc2)c2nccn2C)n1 (centres unmarked) [Example 262],2.54^[b]
7,CCCC(C)C(=O)Nc1cccc(CON=C(c2ccccc2)c2nccn2C)n1 (centres unmarked) [Example 263],2.54^[b]
8,Cn1ccnc1C(=NOCc1cccc(NC(=O)Cc2cccs2)n1)c1ccccc1 [Example 264],2.23^[b]
9,Cn1ccnc1C(=NOCc1cccc(NC(=O)Cc2ccccc2Cl)n1)c1ccccc1 [Example 265],2.61^[b]
10,COc1ccc(CC(=O)Nc2cccc(CON=C(c3ccccc3)c3nccn3C)n2)cc1 [Example 266],2.33^[b]
11,COc1cccc(CC(=O)Nc2cccc(CON=C(c3ccccc3)c3nccn3C)n2)c1 [Example 267],2.37^[b]
12,COc1ccccc1CC(=O)Nc1cccc(CON=C(c2ccccc2)c2nccn2C)n1 [Example 268],2.47^[b]
13,Cn1ccnc1C(=NOCc1cccc(NC(=O)Cc2ccccc2F)n1)c1ccccc1 [Example 269],2.4^[b]
14,COCCC(=O)Nc1cccc(CON=C(c2ccccc2)c2nccn2C)n1 [Example 270],4.53^[b]
15,CSCCC(=O)Nc1cccc(CON=C(c2ccccc2)c2nccn2C)n1 [Example 271],1.9^[b]
16,Cn1ccnc1C(=NOCc1cccc(NC(=O)OCCF)n1)c1ccccc1 [Example 272],1.81^[b]
17,COc1ccc(CC(=O)Nc2cccc(CON=C(c3cccc(F)c3)c3nccn3C)n2)cc1 [Example 273],2.54^[b]
18,COc1cccc(CC(=O)Nc2cccc(CON=C(c3cccc(F)c3)c3nccn3C)n2)c1 [Example 274],2.58^[b]
19,COc1ccccc1CC(=O)Nc1cccc(CON=C(c2cccc(F)c2)c2nccn2C)n1 [Example 275],2.66^[b]
20,Cn1ccnc1C(=NOCc1cccc(NC(=O)Cc2ccccc2F)n1)c1cccc(F)c1 [Example 276],2.59^[b]
21,COCCC(=O)Nc1cccc(CON=C(c2cccc(F)c2)c2nccn2C)n1 [Example 277],1.69^[b]
22,CC(C(=O)Nc1cccc(CON=C(c2cccc(F)c2)c2nccn2C)n1)c1ccccc1 (centres unmarked) [Example 278],2.92^[b]

# Same assay, conditions: reversed phase HPLC column, pH 2.7
row,SMILES,chromatographic logP
1,"Cn1cnnc1C(=NOCc1cccc(Br)n1)c1ccccc1 [Example 228, N-[(6-bromopyridin-2-yl)methoxy]-1-(4-methyl-4H-1,2,4-triazol-3-yl)-1-phenylmethanimine]",2.28
2,"Cn1cnnc1C(=NOCc1cccc(C#CC2CC2)n1)c1ccccc1 [Example 229, N-{[6-(cyclopropylethynyl)pyridin-2-yl]methoxy}-1-(4-methyl-4H-1,2,4-triazol-3-yl)-1-phenylmethanimine]",2.56
